Experimental data as given in patent publication US8802597B2, “Herbicidal pyrimidines” (E I du Pont de Nemours and Company, priority 2003, dated 2014).

Key:
Assay in all cases: Test C pre/postemergence
Type in all cases: in vivo
[1] = tested on: Surinam grass (Brachiaria decumbens); conditions: Preemergence, scale 0 to 100, 0 no effect, 100 complete control
How it was run: (§1)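 Percent control is a visual rating (0 none, 100 complete) taken against untreated plants after 12 to 14 days of greenhouse growth. Applications were made preemergence to seeded pots and postemergence to plants at the 1- to 4-leaf stage, in a non-phytotoxic surfactant-containing solvent.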

[2] = tested on: cocklebur (Xanthium strumarium); conditions: Preemergence
How it was run: as §1

[3] = tested on: common (oilseed) sunflower (Helianthus annuus); conditions: Preemergence, scale 0 to 100, 0 no effect, 100 complete control
How it was run: as §1

corn (Zea mays) = conditions: Preemergence
How it was run: as §1

[4] = tested on: crabgrass (Digitaria sanguinalis); conditions: Preemergence
How it was run: as §1

[5] = tested on: eastern black nightshade (Solanum ptycanthum); conditions: Preemergence, scale 0 to 100, 0 no effect, 100 complete control
How it was run: as §1

[6] = tested on: giant foxtail (Setaria faberii); conditions: Preemergence
How it was run: as §1

[7] = tested on: johnsongrass (Sorghum halepense); conditions: Preemergence
How it was run: as §1

kochia (Kochia scoparia) = conditions: Preemergence; for Plant response rating, Kochia: scale 0 to 100, 0 no effect, 100 complete control
How it was run: as §1

[8] = tested on: lambsquarters (Chenopodium album); conditions: Preemergence
How it was run: as §1

[9] = tested on: morningglory (Ipomoea coccinea); conditions: Preemergence
How it was run: as §1

soybean (Glycine max) = conditions: Preemergence, scale 0 to 100, 0 no effect, 100 complete control
How it was run: as §1

[10] = 16 g ai/ha, scale 0 to 100, 0 no effect, 100 complete control
[11] = 31 g ai/ha, scale 0 to 100, 0 no effect, 100 complete control
[12] = 62 g ai/ha, scale 0 to 100, 0 no effect, 100 complete control

Nc1nc(C2CC2)nc(C(=O)[O-])c1Cl.[Na+] [Compound 77, 6-amino-5-chloro-2-cyclopropyl-4-pyrimidinecarboxylic acid monosodium salt]
Plant response rating, Surinam Grass ([1]; 16 g ai/ha): 0
pest or weed control at 31 g/ha ([1]; Urochloa decumbens, pre-emergence, 31 g ai/ha, read-out: Plant response rating, Surinam Grass): 0%
pest or weed control at 62 g/ha ([1]; Urochloa decumbens, pre-emergence, 62 g ai/ha, read-out: Plant response rating, Surinam Grass): 0%
Plant response rating, Cocklebur [2, 10]: 55
Plant response rating, Cocklebur [2, 11]: 70
pest or weed control at 62 g/ha ([2]; Xanthium strumarium, pre-emergence, 62 g ai/ha, scale 0 to 100, 0 no effect, 100 complete control, read-out: Plant response rating, Cocklebur): 80%
pest or weed control at 125 g/ha ([2]; Xanthium strumarium, pre-emergence, 125 g ai/ha, scale 0 to 100, read-out: Plant response rating, Cocklebur): 95%
pest or weed control at 31 g/ha ([3]; Helianthus annuus, pre-emergence, 31 g ai/ha, read-out: Plant response rating, Sunflower): 50%
pest or weed control at 62 g/ha ([3]; Helianthus annuus, pre-emergence, 62 g ai/ha, read-out: Plant response rating, Sunflower): 100%
Plant response rating, Sunflower ([3]; 16 g ai/ha): 20
Plant response rating, Corn (corn (Zea mays); [10]): 0
Plant response rating, Corn (corn (Zea mays); [11]): 0
Plant response rating, Corn (corn (Zea mays); [12]): 0
Plant response rating, Corn (corn (Zea mays); 125 g ai/ha, scale 0 to 100): 35
pest or weed control at 31 g/ha ([4]; Digitaria sanguinalis, pre-emergence, 31 g ai/ha, scale 0 to 100, 0 no effect, 100 complete control, read-out: Plant response rating, Crabgrass): 0%
pest or weed control at 62 g/ha ([4]; Digitaria sanguinalis, pre-emergence, 62 g ai/ha, scale 0 to 100, 0 no effect, 100 complete control, read-out: Plant response rating, Crabgrass): 0%
Plant response rating, Crabgrass [4, 10]: 0
Plant response rating, Crabgrass ([4]; 125 g ai/ha, scale 0 to 100): 0
Plant response rating, Nightshade ([5]; 16 g ai/ha): 0
Plant response rating, Nightshade ([5]; 31 g ai/ha): 0
Plant response rating, Nightshade ([5]; 62 g ai/ha): 0
Plant response rating, Foxtail, Giant [6, 10]: 0
pest or weed control at 31 g/ha ([6]; Setaria faberi, pre-emergence, 31 g ai/ha, scale 0 to 100, 0 no effect, 100 complete control, read-out: Plant response rating, Foxtail, Giant): 0%
pest or weed control at 62 g/ha ([6]; Setaria faberi, pre-emergence, 62 g ai/ha, scale 0 to 100, 0 no effect, 100 complete control, read-out: Plant response rating, Foxtail, Giant): 0%
pest or weed control at 125 g/ha ([6]; Setaria faberi, pre-emergence, 125 g ai/ha, scale 0 to 100, read-out: Plant response rating, Foxtail, Giant): 0%
Plant response rating, Johnsongrass [7, 10]: 0
Plant response rating, Johnsongrass [7, 12]: 0
Plant response rating, Johnsongrass ([7]; 125 g ai/ha, scale 0 to 100): 0
pest or weed control at 31 g/ha ([7]; Sorghum halepense, pre-emergence, 31 g ai/ha, scale 0 to 100, 0 no effect, 100 complete control, read-out: Plant response rating, Johnsongrass): 0%
pest or weed control at 125 g/ha (kochia (Kochia scoparia); Bassia scoparia, pre-emergence, 125 g ai/ha, scale 0 to 100, read-out: Plant response rating, Kochia): 80%
Plant response rating, Kochia (kochia (Kochia scoparia); 16 g ai/ha): 20
Plant response rating, Kochia (kochia (Kochia scoparia); 62 g ai/ha): 50
Plant response rating, Lambsquarters [8, 10]: 0
Plant response rating, Lambsquarters [8, 11]: 0
Plant response rating, Lambsquarters ([8]; 125 g ai/ha, scale 0 to 100): 40
Plant response rating, Morningglory [9, 10]: 5
Plant response rating, Morningglory [9, 11]: 50
Plant response rating, Morningglory [9, 12]: 50
Plant response rating, Morningglory ([9]; 125 g ai/ha, scale 0 to 100): 75
plant injury at 31 g/ha (soybean (Glycine max); Glycine max, pre-emergence, 31 g ai/ha, read-out: Plant response rating, Soybean): 100%
plant injury at 62 g/ha (soybean (Glycine max); Glycine max, pre-emergence, 62 g ai/ha, read-out: Plant response rating, Soybean): 100%
Plant response rating, Soybean (soybean (Glycine max); 16 g ai/ha): 40
